Experimental findings from US7262212B2, “2,3-dihydro-6-nitroimidazo[2,1-b]oxazoles” (Otsuka Pharmaceutical Co., Ltd., priority 2002, dated 2007) are described below.

Structures are written as SMILES.

Usually melting point stands for the temperature of the solid-liquid transition. Regarding `C[C@]1(COC(=O)N2CC=C(c3ccc(C(F)(F)F)cc3)CC2)Cn2cc([N+](=O)[O-])nc2O1`, the melting point was 169 to 171 °C.

`C[C@]1(COc2ccc(-n3cncn3)cc2)Cn2cc([N+](=O)[O-])nc2O1` registered a melting point of 236 to 238.7 °C.

In the case of `O=C(Nc1ccc(OC(F)(F)F)cc1)N1CCC2(CC1)Cn1cc([N+](=O)[O-])nc1O2`, the melting point is 231 to 233 °C.

As for `CC(C)(C)OC(=O)N1CC=C(c2ccc(OC[C@@]3(C)Cn4cc([N+](=O)[O-])nc4O3)cc2)CC1`, the melting point was 183 to 189 °C (dec.).

Compound `CN(CCOc1ccc(OC(F)(F)F)cc1)CC1(C)Cn2cc([N+](=O)[O-])nc2O1` (stereo not shown) had a melting point of 86.4 to 89.2 °C.

The compound `CN(CCCOc1ccc(OC(F)(F)F)cc1)C[C@@]1(C)Cn2cc([N+](=O)[O-])nc2O1` gave a melting point of 92 to 95 °C.

`O=C(NCC1Cn2cc([N+](=O)[O-])nc2O1)OCc1ccc(Cl)cc1` (stereo not shown) came in with a melting point of 182.6 to 182.9 °C.

Regarding `CC1(CN2CCC(Cc3ccc(C(F)(F)F)cc3)CC2)Cn2cc([N+](=O)[O-])nc2O1` (stereo not shown), the melting point was 125 to 126 °C.

Take `C[C@]1(CN2CCC(NC(=O)OCc3ccc(OC(F)(F)F)cc3)CC2)Cn2cc([N+](=O)[O-])nc2O1`: the melting point lay in the range of 156.2 to 158.5 °C.

Regarding `CC(C)(C)OC(=O)N1CCN(CCC2(C)Cn3cc([N+](=O)[O-])nc3O2)CC1` (stereo not shown), the melting point is 190 to 191 °C (dec.).

`CC1(CN2CCN(C(=O)COc3ccc(Cl)c(Cl)c3)CC2)Cn2cc([N+](=O)[O-])nc2O1` (stereo not shown): the melting point was 209 to 211 °C.

`CC1(CCCN2CCN(C(=O)OCc3ccc(C(F)(F)F)cc3)CC2)Cn2cc([N+](=O)[O-])nc2O1` (stereo not shown) gave a melting point of 130 to 133 °C.

`CC1(CN2CCN(C(=O)OCC#Cc3ccc(C(F)(F)F)cc3)CC2)Cn2cc([N+](=O)[O-])nc2O1.O=C(O)/C=C\C(=O)O` (stereo not shown): the melting point is 166 °C (dec.).

On to `CSc1ccc(COC(=O)N2CCN(CC3(C)Cn4cc([N+](=O)[O-])nc4O3)CC2)cc1` (stereo not shown), for which the melting point fell in the range of 118 to 120 °C.

On to `C[S+]([O-])c1ccc(COC(=O)N2CCN(CC3(C)Cn4cc([N+](=O)[O-])nc4O3)CC2)cc1` (stereo not shown), for which the melting point lay in the range of 117 to 121 °C.

The compound `C[C@@]1(CN2CCN(Cc3ccc(C(F)(F)F)cc3)CC2)Cn2cc([N+](=O)[O-])nc2O1` came in with a melting point of 93 to 95 °C.

`COc1ccc(C(=O)N2CCN(CC3(C)Cn4cc([N+](=O)[O-])nc4O3)CC2)cc1` (stereo not shown) displayed a melting point of 135 to 137 °C.

On to `CC1(CN2CCN(C(=O)Nc3ccc(Cl)cc3)CC2)Cn2cc([N+](=O)[O-])nc2O1` (stereo not shown), for which the melting point is 185 to 188 °C (dec.).

As for `CC1(CN2CCN(C(=O)N3CCC(c4ccc(Cl)cc4)CC3)CC2)Cn2cc([N+](=O)[O-])nc2O1` (stereo not shown), the melting point was 186 to 187 °C.

For the compound `CC1(Cn2nc(-c3ccc(Cl)cc3)oc2=O)Cn2cc([N+](=O)[O-])nc2O1` (stereo not shown), the melting point was in the range of 221 to 222 °C.

Compound `CC1(Cn2nc(Cc3ccc(Cl)cc3)oc2=O)Cn2cc([N+](=O)[O-])nc2O1` (stereo not shown) yielded a melting point of 151 to 153 °C.

As for `O=c1oc(-c2ccc(OC(F)(F)F)cc2)nn1CC1Cn2cc([N+](=O)[O-])nc2O1` (stereo not shown), the melting point lay in the range of 204 to 207 °C.

In turn, `CCCCCCn1c(=O)n(CC2(C)Cn3cc([N+](=O)[O-])nc3O2)c2cc(Cl)ccc21` (stereo not shown) displayed a melting point of 168.1 to 169.3 °C.

`CC1(CN2C(=O)C(F)(F)c3ccccc32)Cn2cc([N+](=O)[O-])nc2O1` (stereo not shown) showed a melting point of 202 to 206 °C.

As to `CC1(CCc2nnnn2-c2ccccc2)Cn2cc([N+](=O)[O-])nc2O1` (stereo not shown), the melting point lay in the range of 158 to 159 °C.

Regarding `CC1(CCN2CCN(c3ccccc3)C(=O)C2)Cn2cc([N+](=O)[O-])nc2O1` (stereo not shown), the melting point is 199 to 202 °C (dec.).

`O=C(CN1CCN(c2nc3ccccc3o2)CC1)N1CCC2(CC1)Cn1cc([N+](=O)[O-])nc1O2`: the melting point is 260 to 263 °C (dec.).

In the case of `CN(C(=O)OC[C@@]1(C)Cn2cc([N+](=O)[O-])nc2O1)c1ccc(Cl)cc1`, the melting point lay within 131 to 133 °C.
